Kd data for one molecule are collected here from publication PMC11055985, “Metochalcone induces senescence-associated secretory phenotype via JAK2/STAT3 pathway in breast cancer” (Oncology Research, 2024).

pKd: −log10 of the molar value.

For this assay, the target named is STAT3 (Homo sapiens, UniProt P40763). As to the kind of experiment: microscale thermophoresis (MST) with His-tag-labelled purchased STAT3 protein (ACROBiosystems ST3-H5149). It is filed as binding. In general terms: MST reads how a fluorescent partner responds to local heating, with and without ligand.
Sequence of STAT3 (P40763 2-770): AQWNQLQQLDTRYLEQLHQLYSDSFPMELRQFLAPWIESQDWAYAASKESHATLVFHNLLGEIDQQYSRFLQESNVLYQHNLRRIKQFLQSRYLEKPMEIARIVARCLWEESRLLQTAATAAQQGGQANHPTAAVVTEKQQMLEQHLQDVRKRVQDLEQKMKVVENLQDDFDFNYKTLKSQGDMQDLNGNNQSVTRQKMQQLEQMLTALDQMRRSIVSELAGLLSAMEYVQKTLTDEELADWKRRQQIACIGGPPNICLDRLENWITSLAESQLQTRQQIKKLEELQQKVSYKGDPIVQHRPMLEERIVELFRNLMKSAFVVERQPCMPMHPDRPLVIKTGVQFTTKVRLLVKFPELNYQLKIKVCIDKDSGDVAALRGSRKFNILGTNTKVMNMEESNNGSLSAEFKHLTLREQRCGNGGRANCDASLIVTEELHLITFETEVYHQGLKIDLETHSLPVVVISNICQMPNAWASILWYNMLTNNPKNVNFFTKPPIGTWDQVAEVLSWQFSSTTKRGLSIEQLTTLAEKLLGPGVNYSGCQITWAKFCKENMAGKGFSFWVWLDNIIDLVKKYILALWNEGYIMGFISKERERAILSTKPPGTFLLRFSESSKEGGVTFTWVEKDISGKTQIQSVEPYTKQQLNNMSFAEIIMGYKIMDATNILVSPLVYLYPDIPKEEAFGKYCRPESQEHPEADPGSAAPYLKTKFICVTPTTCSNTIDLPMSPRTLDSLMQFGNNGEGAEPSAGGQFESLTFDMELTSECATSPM

For `COc1ccc(/C=C/C(=O)c2ccc(OC)cc2OC)cc1` [TEC, 2', 4, 4'-trimethoxychalcone], the pKd (usually the negative decadic logarithm of the Kd, by convention in mol/L) was 5.01.
